Data taken from patent publication US10869933B2, “Oligomer-phenothiazine conjugates” (Nektar Therapeutics, priority 2009, dated 2020).
Like-named read-outs stand apart in the source and are kept apart here.

Columns and labels:
[1] = biological target: T1, recombinant human H2 histamine receptor (Homo sapiens, UniProt P25021); assay: Histamine H2 receptor radioligand binding; conditions: [125I]-Aminopotentidine 0.1 nM, human rCHO-K1 cell membranes; up to 30 μM
T1 construct: expressed in transfected cells; host or cells: CHO cells (membranes)
T1 sequence (P25021 whole entry): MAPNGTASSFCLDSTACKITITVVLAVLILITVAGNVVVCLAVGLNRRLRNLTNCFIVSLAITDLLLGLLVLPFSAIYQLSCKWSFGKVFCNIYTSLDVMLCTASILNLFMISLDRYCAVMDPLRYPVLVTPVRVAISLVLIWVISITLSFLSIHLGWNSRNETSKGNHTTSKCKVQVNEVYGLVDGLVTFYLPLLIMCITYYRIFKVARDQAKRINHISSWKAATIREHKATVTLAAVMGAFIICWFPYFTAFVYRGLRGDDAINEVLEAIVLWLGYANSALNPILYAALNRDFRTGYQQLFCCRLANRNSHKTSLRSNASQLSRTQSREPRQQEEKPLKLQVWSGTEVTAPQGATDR
Experimental: (§1) The radioligands used are specific for each receptor subtype and the assay conditions are described in Table 2. […] Ki is obtained using the Cheng Prusoff correction using experimental Kd vales that are determined under these assay conditions.

[2] = biological target: T2, recombinant human H4 histamine receptor (Homo sapiens, UniProt Q9H3N8); assay: Histamine H4 receptor radioligand binding; conditions: [3H]Histamine 8.2 nM, human rCHO-K1 cell membranes; up to 30 μM
T2 construct: expressed in transfected cells; host or cells: CHO cells (membranes)
Experimental: as §1

[3] = pKa determination (Sirius GLpKa); type: physicochemical
Experimental: (§2) A blank standardization has to be completed first and passed in order to conduct the compound experiments. The solutions used by the instrument for the blank titration include water, a pH solution, and a surfactant (TRITON X-100). The TRITON X-100 was purchased commercially from Sirus. The 0.5% solution of TRITON X-100 was used in the experiment. In a 1 L volumetric flask 5 mls of TRITON X-100 is added and MILLI Q water to volume. The vessels used by the instrument were filled to ⅓ of their volume with each solution. Therefore the assay tray contains one vessel for water, pH solution, and surfactant for the blank run. The temperature of the water bath for the instrument is 25° C. The blank is calculated as an average of three “good” experiments. The “good” was denoted by a green check mark next to the assay number in the computer software. Once the blank was run successfully the instrument was ready to conduct the experiments.
The pKa had to be determined first in order to calculate the Log P. The ΔPI is used to determine the pKa needed for the Log P experiment followed by the conjugates. Promethazine was first weighed into a vessel. […] The same procedure was followed for each PEG-Promethazine conjugate n=3-9. The vessels were placed in the assay tray of the instrument. A method had to be set up for the pKa run. The experimental parameters are entered into the computer software. These included sample weight, molecular weight, assay type (aqueous pKa), number of assays (three), and titration range (generally 3.5-12). The run was started. There are three measurements for each run that are averaged to obtain the final results from the data points collected in the calculation software. All runs were denoted as “good” by the green check mark next to the assay number.

[4] = biological target: T3, recombinant human H3 histamine receptor (Homo sapiens, UniProt Q9Y5N1); assay: Histamine H3 receptor radioligand binding; conditions: [3H]R(−)-α-Methylhistamine 3 nM, human rCHO-K1 cell membranes; up to 30 μM
T3 construct: expressed in transfected cells; host or cells: CHO cells (membranes)
T3 sequence (Q9Y5N1 whole entry): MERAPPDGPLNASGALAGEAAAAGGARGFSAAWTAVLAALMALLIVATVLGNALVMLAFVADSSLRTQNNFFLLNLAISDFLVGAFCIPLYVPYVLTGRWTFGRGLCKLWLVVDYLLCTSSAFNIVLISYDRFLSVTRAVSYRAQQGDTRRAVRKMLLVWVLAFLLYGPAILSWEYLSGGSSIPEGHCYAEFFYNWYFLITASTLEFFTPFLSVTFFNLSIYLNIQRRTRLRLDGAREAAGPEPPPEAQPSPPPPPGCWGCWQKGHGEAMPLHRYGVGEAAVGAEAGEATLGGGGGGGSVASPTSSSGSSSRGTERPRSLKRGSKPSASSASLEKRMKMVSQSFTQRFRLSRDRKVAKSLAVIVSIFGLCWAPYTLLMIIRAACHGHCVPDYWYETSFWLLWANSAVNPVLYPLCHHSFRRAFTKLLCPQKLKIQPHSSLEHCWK
Experimental: as §1

[5] = biological target: T4, recombinant human H1 histamine receptor (Homo sapiens, UniProt P35367); assay: Histamine H1 receptor radioligand binding; conditions: for Ki: [3H]-Pyrilamine 1.2 nM, human rCHO cell membranes; for Fold change in binding affinity at H1: relative to Promethazine
T4 construct: expressed in transfected cells; host or cells: CHO cells (membranes)
T4 sequence (P35367 whole entry): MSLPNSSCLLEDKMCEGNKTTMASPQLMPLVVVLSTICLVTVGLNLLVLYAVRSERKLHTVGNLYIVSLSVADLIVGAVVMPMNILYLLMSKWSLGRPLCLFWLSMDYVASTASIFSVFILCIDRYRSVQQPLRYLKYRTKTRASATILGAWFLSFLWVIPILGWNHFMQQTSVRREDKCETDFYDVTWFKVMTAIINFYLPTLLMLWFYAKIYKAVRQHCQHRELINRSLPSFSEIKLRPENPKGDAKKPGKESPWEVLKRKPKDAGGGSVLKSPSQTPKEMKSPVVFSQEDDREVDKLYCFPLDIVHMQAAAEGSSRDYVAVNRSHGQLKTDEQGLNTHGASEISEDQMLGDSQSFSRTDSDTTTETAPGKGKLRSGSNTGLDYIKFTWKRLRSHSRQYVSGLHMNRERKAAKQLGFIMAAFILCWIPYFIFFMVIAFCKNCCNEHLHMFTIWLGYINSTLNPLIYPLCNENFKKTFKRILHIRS
Experimental: as §1

[6] = Log P determination (Sirius GLpKa); type: physicochemical; conditions: Partition Log P, average of three measurements
Experimental: as §2
An additional method has to be set up for the Log P determinations for each compound. […] The vessels are placed in the assay tray of the instrument. The experimental parameters are entered into the computer. These included sample weight, molecular weight, assay type (Partition Log P), number of assays (three), and pKa value of the parent drug from the previous experiment. The run was started. There are three measurements for each run that are averaged to obtain the final results from the data points collected in the calculation software. All runs were denoted as “good” by the green check mark next to the assay number.

[7] = Brain:plasma ratio; type: in vivo; conditions: rat, brain and plasma, iv; rats, 5 mg/kg intravenously, one hour after injection; brain (ng/g) / plasma (ng/mL)
Experimental: An hour following injection, the animals were sacrificed and plasma and brain were collected and frozen immediately. Following tissue and plasma extractions, concentrations of the compounds in brain and plasma were measured using LC-MS/MS. The brain:plasma ratio was calculated as the ratio of measured concentrations in the brain(ng/g) and plasma (ng/mL).

[8] = biological target: T5, recombinant human M2 muscarinic acetylcholine receptor (Homo sapiens, UniProt P08172); assay: Muscarinic M2 receptor radioligand binding; conditions: 3H-N-Methylscopolamine 0.8 nM, CHO cell membranes
T5 construct: expressed in transfected cells; host or cells: CHO cells (membranes)
T5 sequence (P08172 1-466): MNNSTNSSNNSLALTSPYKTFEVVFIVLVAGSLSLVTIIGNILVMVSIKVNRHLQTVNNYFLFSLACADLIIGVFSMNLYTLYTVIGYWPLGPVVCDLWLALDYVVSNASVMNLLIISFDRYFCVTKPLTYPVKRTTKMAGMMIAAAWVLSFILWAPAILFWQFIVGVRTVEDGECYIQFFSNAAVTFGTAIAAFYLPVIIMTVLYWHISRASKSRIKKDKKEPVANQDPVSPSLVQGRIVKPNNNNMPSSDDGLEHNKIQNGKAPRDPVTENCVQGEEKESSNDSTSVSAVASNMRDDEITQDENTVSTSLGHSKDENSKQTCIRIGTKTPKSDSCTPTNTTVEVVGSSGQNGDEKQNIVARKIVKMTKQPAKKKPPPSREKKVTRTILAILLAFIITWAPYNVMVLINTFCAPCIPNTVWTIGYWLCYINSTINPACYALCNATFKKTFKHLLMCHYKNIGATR

[9] = biological target: T6, recombinant human M5 muscarinic acetylcholine receptor (Homo sapiens, UniProt P08912); assay: Muscarinic M5 receptor radioligand binding; conditions: 3H-N-Methylscopolamine 0.8 nM, CHO cell membranes
T6 construct: expressed in transfected cells; host or cells: CHO cells (membranes)
T6 sequence (P08912 1-532): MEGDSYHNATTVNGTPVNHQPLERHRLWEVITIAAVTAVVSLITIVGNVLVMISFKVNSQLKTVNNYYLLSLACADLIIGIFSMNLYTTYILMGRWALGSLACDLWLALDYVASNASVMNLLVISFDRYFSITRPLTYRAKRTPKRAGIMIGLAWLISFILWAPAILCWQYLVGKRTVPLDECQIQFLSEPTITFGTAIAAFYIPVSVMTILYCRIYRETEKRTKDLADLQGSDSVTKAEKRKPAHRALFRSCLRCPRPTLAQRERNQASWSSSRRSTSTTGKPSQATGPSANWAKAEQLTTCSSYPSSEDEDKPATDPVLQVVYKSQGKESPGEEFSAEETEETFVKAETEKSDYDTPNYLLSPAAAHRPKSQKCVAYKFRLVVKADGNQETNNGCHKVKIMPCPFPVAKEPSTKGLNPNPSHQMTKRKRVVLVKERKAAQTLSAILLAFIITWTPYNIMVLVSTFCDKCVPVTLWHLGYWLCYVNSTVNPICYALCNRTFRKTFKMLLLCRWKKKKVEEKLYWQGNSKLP

[10] = biological target: T7, recombinant human M4 muscarinic acetylcholine receptor (Homo sapiens, UniProt P08173); assay: Muscarinic M4 receptor radioligand binding; conditions: 3H-N-Methylscopolamine 0.8 nM, CHO cell membranes
T7 construct: expressed in transfected cells; host or cells: CHO cells (membranes)
T7 sequence (P08173 1-479): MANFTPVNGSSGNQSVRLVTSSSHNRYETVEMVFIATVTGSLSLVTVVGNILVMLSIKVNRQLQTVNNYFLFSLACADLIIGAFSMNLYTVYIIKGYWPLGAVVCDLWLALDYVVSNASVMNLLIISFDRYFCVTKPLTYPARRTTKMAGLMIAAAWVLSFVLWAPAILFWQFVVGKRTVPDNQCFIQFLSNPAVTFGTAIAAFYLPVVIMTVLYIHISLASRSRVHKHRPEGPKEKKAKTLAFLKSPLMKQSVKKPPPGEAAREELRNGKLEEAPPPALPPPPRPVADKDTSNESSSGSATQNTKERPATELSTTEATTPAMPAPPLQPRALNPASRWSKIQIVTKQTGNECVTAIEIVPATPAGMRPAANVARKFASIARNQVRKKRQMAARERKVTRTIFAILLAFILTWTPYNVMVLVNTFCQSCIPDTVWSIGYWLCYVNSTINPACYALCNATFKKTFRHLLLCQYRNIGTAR

[11] = test system: CD-1 male mice (visceral pain); assay: Analgesic assay: acetic acid writhing; type: in vivo; conditions: Dose 10 mg/kg, single pretreatment 30 min before IP 0.5% acetic acid; contractions counted 0-20 min
Experimental: An analgesic assay was used to determine whether a given compound can reduce and/or prevent visceral pain in mice.
Mice were treated according to standard protocols.
Contractions were counted between 0 and 20 minutes after the injection. The animals were used once.

[12] = aqueous solution, read-out: pKa

Compound	Ki [1] [nM]	Ki [2] [nM]	pKa [3, 12]	Ki [4] [nM]	Ki [5] [nM]	Fold change in binding affinity at H1 [5]	logP ([6]; read-out: LogP)	Kp at 1 h [7]	Ki [8] [nM]	Ki [9] [nM]	pKa ([3]; aqueous pKa, 25° C., average of three measurements)	logP [6]	Ki [10] [nM]	Acetic Acid Writhing Mean (% Morphine) [11] [% Morphine]
CC(CN1c2ccccc2Sc2ccccc21)N(C)C (stereo not shown) [Promethazine, reference compound]	> 30000	> 30000	8.99	> 30000			3.43		26.4	9.34			7.74	
mPEG9-N-promethazine	> 30000			> 30000					308					−59.69
COCCOCCOCCOCCOCCOCCOCCOCc1ccc2c(c1)Sc1ccccc1N2CC(C)N(C)C (stereo not shown) [mPEG7-O-Promethazine, mPEG7-O-promethazine]	> 30000	> 30000		> 30000	33.2	119.42								
COCCOCCOCCOCCOCCN(C)C(C)CN1c2ccccc2Sc2ccccc21 (stereo not shown) [mPEG5-N-Promethazine, mPEG5-N-promethazine]	> 30000	> 30000	8.67	> 30000	8.53	30.68	3.6	0.243	817					
mPEG8-N-Promethazine											8.238	2.648		
COCCOCCOCCOCc1ccc2c(c1)Sc1ccccc1N2CC(C)N(C)C (stereo not shown) [mPEG3-O-Promethazine, mPEG3-O-promethazine]	> 30000	> 30000		> 30000	7.62	27.41								

Further lines, with some results ahead:

Ki [1] [nM]	Ki [2] [nM]	pKa [3, 12]	Ki [4] [nM]	Ki [5] [nM]	Fold change in binding affinity at H1 [5]	logP ([6]; read-out: LogP)	Kp at 1 h [7]	Ki [8] [nM]	Ki [9] [nM]	pKa ([3]; aqueous pKa, 25° C., average of three measurements)	logP [6]	Compound	Ki [10] [nM]	Acetic Acid Writhing Mean (% Morphine) [11] [% Morphine]
> 30000	> 30000	8.4	> 30000	2.28	8.20	3.65						COCCOCCOCCN(C)C(C)CN1c2ccccc2Sc2ccccc21 (stereo not shown) [mPEG3-N-Promethazine, mPEG3-N-promethazine]		
> 30000	> 30000	8.53	> 30000	13.2	47.48	3.25	0.098	337	1740			COCCOCCOCCOCCOCCOCCN(C)C(C)CN1c2ccccc2Sc2ccccc21 (stereo not shown) [mPEG6-N-Promethazine, mPEG6-N-promethazine]		
> 30000	> 30000	8.45	> 30000	1.95	7.01	3.51	1.86					COCCOCCOCCOCCN(C)C(C)CN1c2ccccc2Sc2ccccc21 (stereo not shown) [mPEG4-N-Promethazine, mPEG4-N-promethazine]		
> 30000	> 30000	8.49	> 30000	16.9	60.79	3	0.112	90	905			COCCOCCOCCOCCOCCOCCOCCN(C)C(C)CN1c2ccccc2Sc2ccccc21 (stereo not shown) [mPEG7-N-Promethazine, mPEG7-N-promethazine]	435	
> 30000	> 30000		> 30000	7.16	25.76							COCCOCCOCCOCCOCCOCc1ccc2c(c1)Sc1ccccc1N2CC(C)N(C)C (stereo not shown) [mPEG5-O-Promethazine, mPEG5-O-promethazine]		
> 30000	> 30000		> 30000	45.1	162.23							COCCOCCOCCOCCOCCOCCOCCOCCOCCOCc1ccc2c(c1)Sc1ccccc1N2CC(C)N(C)C (stereo not shown) [mPEG9-O-Promethazine, mPEG9-O-promethazine]		
